For series [1], the target named is T1, hERG potassium channel (Homo sapiens, UniProt Q12809).
T1 construct: expressed in transfected cells; host or cells: HEK293
Description: hERG patch clamp assay. In kind it is cell-based. Conditions: HEK293 cells stably transfected with hERG cDNA, peak tail currents, read-out: % Inhibition (Mean ± SE). An excerpt:
Cell Line. Human embryonic kidney (HEK293) cells stably transfected with human ether-a-go-go related gene (hERG) cDNA were used in the hERG assay. The biophysical and pharmacological properties of recombinant hERG channels expressed in HEK293 cells and of native IKr channels in human cardiac cells are nearly identical. Several known hERG blockers, including dofetilide, terfenadine, cisapride and E-4031 inhibit recombinant hERG currents in the hERG stable cell line and IKr currents in isolated cardiac myocytes with identical potency.
Patch Clamp. […]
Initially, a current-voltage relationship was generated in the control bath solution using the following voltage protocol. hERG currents were elicited by 2 second step depolarizations applied from a holding potential of −80 mV to test potentials ranging from −70 mV to +60 mV. […] The peak tail current was monitored until a new steady-state in the presence of test article was achieved. This was followed by the application of the next higher concentration of test article to be tested, and was repeated until all concentrations of test article had been evaluated. Effects of test article on hERG channel were calculated by measuring inhibition of peak tail currents. Percent inhibition of tail currents was plotted as a function of test article concentration to quantify hERG channel inhibition. […] All currents were recorded at room temperature 25° C.
In general terms: The hERG channel carries a current that helps repolarise heart muscle cells.

The target of series [2] is T1, hERG potassium channel. Description: hERG Flux assay (FLIPR). Type of series: cell-based. Conditions: HEK293 cells stably-expressing hERG, thallium flux. The method, then: Cells are incubated at 21° C. for 45 minutes.
Data Analysis. […] The raw fluorescence units data files generated on the FLIPR plate reader are automatically exported and processed by in-house data analysis tools.

The test system of series [3] is genotype 1b HCV replicon in Huh-7 cells. Description: HCV Replicon Luciferase Assay. In kind it is cell-based. The conditions noted are these: Hepatitis C virus, Huh-7, 72 h. The method, then:
Cell Lines. The cell lines used to evaluate compounds consist of a human hepatocyte derived cell line (Huh-7) that constitutively expresses a genotype 1b HCV replicon containing a Renilla luciferase reporter gene. These cells were maintained in Dulbecco's modified Eagle medium (DMEM) containing 10% FBS, 100 U/mL penicillin/streptomycin and 1.0 mg/mL G418.
HCV Replicon Luciferase Assay. To evaluate compound efficacy, titrated compounds were transferred to sterile 384-well tissue culture treated plates, and the plates were seeded with HCV replicon cells (50 μL at a density of 2.4×10^3 cells/well) in DMEM containing 4% FBS (final DMSO concentration at 0.5%). After 3 days incubation at 37° C., cells were analyzed for Renilla Luciferase activity using the EnduRen substrate (Promega cat #E6485) according to the manufacturer's directions. Briefly, the EnduRen substrate was diluted in DMEM and then added to the plates to a final concentration of 7.5 μM. The plates were incubated for at least 1 h at 37° C. then read on a Viewlux Imager (PerkinElmer) using a luminescence program. The 50% effective concentration (EC50) was calculated using the four-parameter logistic formula noted above.
Background: Replicon systems follow genome replication, usually without infectious particles.

Series [4] concerns the target NS5B protein of HCV, genotype 1b (Hepatitis C virus genotype 1b, UniProt Q9WMX2). Briefly: biochemical. The method, then:
The cDNA encoding the NS5B protein of HCV, genotype 1b, was cloned into the pET21a expression vector. The protein was expressed with an 18 amino acid C-terminal truncation to enhance the solubility. The E. coli competent cell line BL21(DE3) was used for expression of the protein. Cultures were grown at 37° C. for ˜4 hours until the cultures reached an optical density of 2.0 at 600 nm. The cultures were cooled to 20° C. and induced with 1 mM IPTG. Fresh ampicillin was added to a final concentration of 50 μg/mL and the cells were grown overnight at 20° C.
The lysis buffer consisted of 20 mM Tris-HCl, pH 7.4, 500 mM NaCl, 0.5% triton X-100, 1 mM DTT, 1 mM EDTA, 20% glycerol, 0.5 mg/mL lysozyme, 10 mM MgCl2, 15 ug/mL deoxyribonuclease I, and Complete TM protease inhibitor tablets (Roche). After addition of the lysis buffer, frozen cell pellets were resuspended using a tissue homogenizer. […]
After incubating for at least 15 minutes, plates were read on an Amersham LEADseeker multimodality imaging system.
IC50 values for compounds were determined using ten different [I]. IC50 values were calculated from the inhibition using the four-parameter logistic formula y=A+((B−A)/(1+((C/x)^D))), where A and B denote minimal and maximal % inhibition, respectively, C is the IC50, D is hill slope and x represents compound concentration.

T1 sequence (Q12809 whole entry): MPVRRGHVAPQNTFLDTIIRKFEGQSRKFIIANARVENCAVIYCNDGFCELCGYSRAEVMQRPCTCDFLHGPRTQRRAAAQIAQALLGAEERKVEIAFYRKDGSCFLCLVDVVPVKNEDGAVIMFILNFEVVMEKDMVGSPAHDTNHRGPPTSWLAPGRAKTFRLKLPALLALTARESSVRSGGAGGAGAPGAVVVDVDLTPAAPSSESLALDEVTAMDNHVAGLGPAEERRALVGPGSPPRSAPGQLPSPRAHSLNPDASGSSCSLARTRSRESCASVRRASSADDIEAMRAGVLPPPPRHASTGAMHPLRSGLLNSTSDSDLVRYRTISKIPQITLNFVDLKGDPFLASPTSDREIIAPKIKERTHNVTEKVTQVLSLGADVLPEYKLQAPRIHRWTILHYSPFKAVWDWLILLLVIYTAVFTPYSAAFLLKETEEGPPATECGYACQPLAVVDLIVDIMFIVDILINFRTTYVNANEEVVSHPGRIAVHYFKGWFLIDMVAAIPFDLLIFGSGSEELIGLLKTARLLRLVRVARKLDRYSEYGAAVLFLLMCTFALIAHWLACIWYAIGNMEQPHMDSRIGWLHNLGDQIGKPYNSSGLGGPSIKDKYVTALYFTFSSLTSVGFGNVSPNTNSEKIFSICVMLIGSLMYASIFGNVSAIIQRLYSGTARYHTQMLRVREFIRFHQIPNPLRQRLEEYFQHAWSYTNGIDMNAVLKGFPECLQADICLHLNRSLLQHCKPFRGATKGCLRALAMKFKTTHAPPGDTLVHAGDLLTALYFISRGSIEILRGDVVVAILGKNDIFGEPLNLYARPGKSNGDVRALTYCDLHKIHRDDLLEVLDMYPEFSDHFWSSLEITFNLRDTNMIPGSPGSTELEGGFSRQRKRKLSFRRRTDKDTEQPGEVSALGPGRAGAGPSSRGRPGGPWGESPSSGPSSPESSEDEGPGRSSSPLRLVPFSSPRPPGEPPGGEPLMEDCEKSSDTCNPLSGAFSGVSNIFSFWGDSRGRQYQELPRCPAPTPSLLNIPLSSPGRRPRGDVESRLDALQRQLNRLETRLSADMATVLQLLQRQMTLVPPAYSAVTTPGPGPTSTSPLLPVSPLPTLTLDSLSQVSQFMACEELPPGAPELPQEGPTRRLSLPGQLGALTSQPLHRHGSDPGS
Sequence of NS5B protein of HCV, genotype 1b (Q9WMX2 2420-2992): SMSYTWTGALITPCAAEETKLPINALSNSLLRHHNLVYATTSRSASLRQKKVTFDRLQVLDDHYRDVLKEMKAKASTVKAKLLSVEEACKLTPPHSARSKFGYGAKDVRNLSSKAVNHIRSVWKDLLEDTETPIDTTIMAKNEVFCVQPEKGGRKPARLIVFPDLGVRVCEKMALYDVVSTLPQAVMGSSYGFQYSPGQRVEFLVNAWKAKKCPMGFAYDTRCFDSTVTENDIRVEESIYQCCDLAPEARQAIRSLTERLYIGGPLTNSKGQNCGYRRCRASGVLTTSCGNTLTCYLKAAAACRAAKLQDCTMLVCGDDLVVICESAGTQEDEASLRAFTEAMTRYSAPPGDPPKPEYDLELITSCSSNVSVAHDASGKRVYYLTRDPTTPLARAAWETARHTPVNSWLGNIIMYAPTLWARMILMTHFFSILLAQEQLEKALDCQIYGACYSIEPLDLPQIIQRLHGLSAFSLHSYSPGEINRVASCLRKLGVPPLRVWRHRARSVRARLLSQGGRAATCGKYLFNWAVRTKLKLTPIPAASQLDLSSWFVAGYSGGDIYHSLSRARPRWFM

With `CN1CC2CCC(C1)N2C(=O)[C@]12C[C@H]1c1cc(F)ccc1-c1c(C3CCCCC3)c3ccc(C(=O)NS(=O)(=O)C4(C)CC4)cc3n1C2` [Compound I, (1aR,12bS)-8-cyclohexyl-11-fluoro-N-((1-methylcyclopropyl)sulfonyl)-1a-((3-methyl-3,8-diazabicyclo[3.2.1]oct-8-yl)carbonyl)-1,1a,2,12b-tetrahydrocyclopropa[d]indolo[2,1-a][2]benzazepine-5-carboxamide], the inhibition at 10 μM in series [1] (pH 7.4, Conc. 10 μM) turned out to be 30.5 ± 1.9%. Moreover, the inhibition at 30 μM in series [1] (pH 7.4, Conc. 30 μM) turned out to be 43.4 ± 2%. Moreover, the IC50 in series [2] was 23400 nM; in series [4] it was 5 nM. The compound further returned a 50% effective concentration (EC50) in series [3] of 7 nM.

As a reminder, the inhibition is the percentage by which the read-out fell short of the control. One may read the IC50 as the midpoint of a concentration-inhibition curve. Higher therefore signals a need for much substance. Usually EC50 stands for the concentration at which the effect is half-maximal. A low value points to a more potent agent.

The values above are taken from patent US8716275B2, “Compound for the treatment of hepatitis C” (Bristol-Meyers Squibb Company, priority 2011, dated 2014).
